# Reference: patent US4201786A, “Water soluble pesticidal quaternary ammonium salt compounds” (Union Carbide Corporation, priority 1977, dated 1980)
# Columns and labels:
# [1] = Water solubility (Table I); assay type: physicochemical; settings: 25° C.
# [2] = tested on: house flies (Musca domestica, L.); assay: Fly bait test; assay type: in vivo; parameters: key: A: Excellent control; B: Partial control; C: No control; settings: 500 ppm, bait in 10 percent sugar solution, twenty four hours
# Description: (§1) Suspensions of the test compounds were prepared by dissolving one gram of compound in 50 milliliters of acetone in which had been dissolved 0.1 gram (10 percent of the weight of compound) of an alkylphenoxy polyethoxyethanol surfactant, as an emulsifying or dispersing agent. The resulting solution was mixed into 150 milliliters of water to give roughly 200 milliliters of a suspension containing the compound in finely divided form. The thus-prepared stock suspension contained 0.5 percent by weight of test compound. The test concentrations in parts per million by weight employed in the tests described hereinbelow were obtained by appropriate dilutions of the stock suspension with water. The test procedures were as follows:
# Four to six day old adult house flies (Musca domestica, L.) reared according to the specifications of the Chemical Specialties Manufacturing Association (Blue Book, McNair-Dorland Co., NY., 1954; pages 243-244, 261) under controlled conditions of 80°±5° F. and 50±5 percent relative humidity, were the test insects. The flies were immobilized by anesthetizing with carbon dioxide and twenty five immobilized individuals, males and females, were transferred to a cage consisting of a standard food strainer about five inches in diameter which was inverted over a wrapping-paper-covered surface. The test compounds were formulated by diluting the stock suspension with a 10 percent (by weight) sugar solution to give a suspension containing 500 parts of test compound per million parts of final formulation, by weight. Ten milliliters of the test formulation were added to a souffle cup containing a one inch square of an absorbent cotton pad. This bait cup was introduced and centered on the blotting paper under the food strainer prior to admitting the anesthetized flies. The caged flies were allowed to feed on the bait for twenty four hours, at a temperature of 80°±5° F. and the relative humidity of 50±5 percent.
# (§2) In these test the pesticidal activity of the compounds against aphid, mite, Southern Armyworm, Mexican Bean Beetle, and house fly was rated as follows: […]
# [3] = tested on: two-spotted mite (Tetranychus urticae Koch); assay: Mite foliage spray test; assay type: in vivo; parameters: key: A: Excellent control; B: Partial control; C: No control; settings: 500 ppm, six days
# Description: as §1
# Adults and nymphal stages of the two-spotted mite (Tetranychus urticae Koch), reared on Tendergreen bean plants at 80±5 percent relative humidity, were the test organisms. Infested leaves from a stock culture were placed on the primary leaves of two bean plants six to eight inches in height, growing in a two- and-a-half inch clay pot. 150-200 mites, a sufficient number for testing, transferred from the excised leaves to the fresh plants in a period of twenty-four hours. Following the twenty-four hour transfer period, the excised leaves were removed from the infested plants. The test compounds were formulated by diluting the stock suspension with water to give a suspension with water to give a suspension containing 500 parts of test compound per million parts of final formulation. The potted plants (one pot per compound) were placed on a revolving turntable and sprayed with 100-110 milliliters of test compound formulation by use of a DeVilbiss spray gun set at 40 psig. air pressure. This application, which lasted for 25 seconds was sufficient to wet the plants to run-off. As a control, 100-110 milliliters of a water solution containing acetone and emulsifier in the same concentrations as the test compound formulation, but containing no test compound, were also sprayed on infested plants. The sprayed plants were held at 80±5 percent relative humidity for six days, after which a mortality count of motile forms was made. Microscopic examination for motile forms was made on the leaves of the test plants. Any individual which was capable of locomotion upon prodding, was considered living.
# as §2
# [4] = tested on: bean aphid (Aphis fabae Scop.); assay: Bean aphid foliage spray test; assay type: in vivo; parameters: key: A: Excellent control; B: Partial control; C: No control; settings: 500 ppm, 24 hour
# Description: as §1
# Adults and nymphal stages of the bean aphid (Aphis fabae Scop.) reared on potted dwarf nasturtium plants at 65°-70° F. and 50-70 percent relative humidity, constituted the test insects. For testing purposes, the number of aphids per pot was standardized to 100-150 by trimming plants containing excess aphids.
# The test compounds were formulated by diluting the stock suspension with water to give a suspension containing 500 parts of test compound per million parts of final formulation.
# The potted plants (one pot per compound tested) infested with 100-150 aphids, were placed on a revolving turntable and sprayed with 100-110 milliliters of test compound formulation by use of a DeVilbiss spray gun set at 40 psig. air pressure. This application, which lasted 25 seconds, was sufficient to wet the plants to run-off. As a control, 100-110 milliliters of a water-acetone-emulsifier solution containing no test compound were also sprayed on infested plants. After spraying, the pots were placed on their sides on a sheet of white standard mimeograph paper which had been previously ruled to facilitate counting. Temperature and humidity in the test room during the 24 hour holding period were 65°-70° F. and 50-70 percent, respectively. Aphids which fell onto the paper and were unable to remain standing after being uprighted were considered dead. Aphids remaining on the plants were observed closely for movement and those which were unable to move the length of the body upon stimulator by prodding were considered dead. Percent mortality was recorded for various concentration levels.
# as §2
# [5] = tested on: Mexican bean beetle (Epilachna varivestis, Muls.); assay: Mexican bean beetle leaf spray test; assay type: in vivo; parameters: key: A: Excellent control; B: Partial control; C: No control; settings: 500 ppm, three days
# Description: as §1
# Fourth instar larvae of the Mexican bean beetle (Epilachna varivestis, Muls.) reared on Tendergreen bean plants at a temperature of 80°±5° and 50±5 percent relative humidity, were the test insects.
# The test compounds were formulated by diluting the stock suspension with water to give a suspension containing 500 parts of test compound per million parts of final formulation. Potted Tendergreen bean plants of standard height and age were placed on a revolving turntable and sprayed with 100-110 milliliters of test compound formulation by use of a DeVilbiss spray gun set at 10 psig air pressure. This application, which lasted 25 seconds was sufficient to wet plants to run-off. As a control, 100-110 milliliters of a water-acetone-emulsifier solution containing no test compound were also sprayed on infested plants. When dry, the paired leaves were separated and each was placed in a 9 centimeter Petri dish lined with moistened filter paper. Five randomly selected larvae were introduced into each dish, and the dishes were closed. The closed dishes were labeled and held at a temperature of 80°±5° F. for three days. Although the larvae could easily consume the leaf within 24 to 48 hours, no more food was added. Larvae which were unable to move the length of the body, even upon stimulation, were considered dead.
# as §2
# [6] = tested on: southern armyworm (Prodenia Eridania, (Cram.)); assay: Southern armyworm leaf spray test; assay type: in vivo; parameters: key: A: Excellent control; B: Partial control; C: No control; settings: 500 ppm, three days
# Description: as §1
# Larvae of the southern armyworm (Prodenia Eridania, (Cram.), reared on Tendergreen bean plants at a temperature of 80°±5° F. and relative humidity of 50±5 percent, constituted the test insects.
# The test compounds were formulated by diluting the stock suspension with water to give a suspension containing 500 parts of test compound per million parts of final formulation. Potted Tendergreen bean plants of standard height and age were placed on a revolving turntable and sprayed with 100-110 milliliters of test compound formulation by use of a DeVilbiss spray gun set at 10 psig. air pressure.
# This application which lasted 25 seconds was sufficient to wet plants to run-off. As a control, 100-110 milliliters of a water-acetone-emulsifier solution containing no test compound were also sprayed on infested plants. When dry, the paired leaves were separated and each one was placed in a 9 centimeter Petri dish lined with moistened filter paper. Five randomly selected larvae were introduced into each dish and the dishes were closed. The closed dishes were labeled and held at 80°-85° F. for three days. Although the larvae could easily consume the whole leaf within twenty-four hours, no more food was added. Larvae which were unable to move the length of the body, even upon stimulation by prodding, were considered dead. Percent mortality was recorded for various concentration levels.
# as §2
compound,measurement,setting,value
CN(C(=O)C[N+]1(C)CCOCC1)C(=O)Oc1cccc2c1OC(C)(C)C2,solubility,[1],140 mg/mL
same,"Pesticidal activity, Fly",[2],A
same,"Pesticidal activity, Mite",[3],B
same,"Pesticidal activity, Aphid",[4],A
same,"Pesticidal activity, Mexican Bean Beetle",[5],A
same,"Pesticidal activity, Southern Armyworm",[6],A
